{
  "source": "the supplement of paper PMC4862054",
  "conditions_in_all_cases": "incubation time: 72 h",
  "key": {"MCF-10A [1]": {"system": "MCF-10A", "experiment": "normalised response (% of control), CellTox Green; higher = less cell death (100 = DMSO, 0 = benzethonium chloride kill control)", "summary_of_the_method": "(§1)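 For each plate, 0.1 % DMSO was set to 100 and a positive kill control to 0. Breast cancer cell lines (20 µl suspension) were seeded into 384-well plates already holding compound at 5 concentrations in 10-fold steps over a 10,000-fold range chosen per compound, and incubated for 72 h. CellTox Green fluorescence at 485/520 nm was read before CellTiter-Glo luminescence, which followed 10 min at room temperature. Each value is the normalised signal at one concentration.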"}, "HCC1937 [2]": {"system": "HCC1937", "experiment": "normalised response (% of control), CellTox Green; higher = less cell death (100 = DMSO, 0 = benzethonium chloride kill control)", "summary_of_the_method": "as §1"}, "CAL-51 [3]": {"system": "CAL-51", "experiment": "normalised response (% of control), CellTox Green; higher = less cell death (100 = DMSO, 0 = benzethonium chloride kill control)", "summary_of_the_method": "as §1"}, "DU-4475 [4]": {"system": "DU-4475", "experiment": "normalised response (% of control), CellTox Green; higher = less cell death (100 = DMSO, 0 = benzethonium chloride kill control)", "summary_of_the_method": "as §1"}, "MFM-223 [5]": {"system": "MFM-223", "experiment": "normalised response (% of control), CellTox Green; higher = less cell death (100 = DMSO, 0 = benzethonium chloride kill control)", "summary_of_the_method": "as §1"}, "MDA-MB-468 [6]": {"system": "MDA-MB-468", "experiment": "normalised response (% of control), CellTox Green; higher = less cell death (100 = DMSO, 0 = benzethonium chloride kill control)", "summary_of_the_method": "as §1"}, "BT-474 [7]": {"system": "BT-474", "experiment": "normalised response (% of control), CellTox Green; higher = less cell death (100 = DMSO, 0 = benzethonium chloride kill control)", "summary_of_the_method": "as §1"}, "HDQ-P1 [8]": {"system": "HDQ-P1", "experiment": "normalised response (% of control), CellTox Green; higher = less cell death (100 = DMSO, 0 = benzethonium chloride kill control)", "summary_of_the_method": "as §1"}, "HCC1599 [9]": {"system": "HCC1599", "experiment": "normalised response (% of control), CellTox Green; higher = less cell death (100 = DMSO, 0 = benzethonium chloride kill control)", "summary_of_the_method": "as §1"}, "CAL-148 [10]": {"system": "CAL-148", "experiment": "normalised response (% of control), CellTox Green; higher = less cell death (100 = DMSO, 0 = benzethonium chloride kill control)", "summary_of_the_method": "as §1"}, "MDA-MB-453 [11]": {"system": "MDA-MB-453", "experiment": "normalised response (% of control), CellTox Green; higher = less cell death (100 = DMSO, 0 = benzethonium chloride kill control)", "summary_of_the_method": "as §1"}, "CAL-120 [12]": {"system": "CAL-120", "experiment": "normalised response (% of control), CellTox Green; higher = less cell death (100 = DMSO, 0 = benzethonium chloride kill control)", "summary_of_the_method": "as §1"}, "Hs578T [13]": {"system": "Hs578T", "experiment": "normalised response (% of control), CellTox Green; higher = less cell death (100 = DMSO, 0 = benzethonium chloride kill control)", "summary_of_the_method": "as §1"}, "CAL-85-1 [14]": {"system": "CAL-85-1", "experiment": "normalised response (% of control), CellTox Green; higher = less cell death (100 = DMSO, 0 = benzethonium chloride kill control)", "summary_of_the_method": "as §1"}, "MDA-MB-231 [15]": {"system": "MDA-MB-231", "experiment": "normalised response (% of control), CellTox Green; higher = less cell death (100 = DMSO, 0 = benzethonium chloride kill control)", "summary_of_the_method": "as §1"}, "HCC1143 [16]": {"system": "HCC1143", "experiment": "normalised response (% of control), CellTox Green; higher = less cell death (100 = DMSO, 0 = benzethonium chloride kill control)", "summary_of_the_method": "as §1"}, "BT-549 [17]": {"system": "BT-549", "experiment": "normalised response (% of control), CellTox Green; higher = less cell death (100 = DMSO, 0 = benzethonium chloride kill control)", "summary_of_the_method": "as §1"}, "MDA-MB-436 [18]": {"system": "MDA-MB-436", "experiment": "normalised response (% of control), CellTox Green; higher = less cell death (100 = DMSO, 0 = benzethonium chloride kill control)", "summary_of_the_method": "as §1"}, "MCF-10A [19]": {"system": "MCF-10A", "experiment": "normalised response (% of control), CellTiter-Glo; higher = more viable cells (100 = DMSO, 0 = benzethonium chloride kill control)", "summary_of_the_method": "as §1"}, "HCC1937 [20]": {"system": "HCC1937", "experiment": "normalised response (% of control), CellTiter-Glo; higher = more viable cells (100 = DMSO, 0 = benzethonium chloride kill control)", "summary_of_the_method": "as §1"}, "CAL-51 [21]": {"system": "CAL-51", "experiment": "normalised response (% of control), CellTiter-Glo; higher = more viable cells (100 = DMSO, 0 = benzethonium chloride kill control)", "summary_of_the_method": "as §1"}, "DU-4475 [22]": {"system": "DU-4475", "experiment": "normalised response (% of control), CellTiter-Glo; higher = more viable cells (100 = DMSO, 0 = benzethonium chloride kill control)", "summary_of_the_method": "as §1"}, "MFM-223 [23]": {"system": "MFM-223", "experiment": "normalised response (% of control), CellTiter-Glo; higher = more viable cells (100 = DMSO, 0 = benzethonium chloride kill control)", "summary_of_the_method": "as §1"}, "MDA-MB-468 [24]": {"system": "MDA-MB-468", "experiment": "normalised response (% of control), CellTiter-Glo; higher = more viable cells (100 = DMSO, 0 = benzethonium chloride kill control)", "summary_of_the_method": "as §1"}, "BT-474 [25]": {"system": "BT-474", "experiment": "normalised response (% of control), CellTiter-Glo; higher = more viable cells (100 = DMSO, 0 = benzethonium chloride kill control)", "summary_of_the_method": "as §1"}, "HDQ-P1 [26]": {"system": "HDQ-P1", "experiment": "normalised response (% of control), CellTiter-Glo; higher = more viable cells (100 = DMSO, 0 = benzethonium chloride kill control)", "summary_of_the_method": "as §1"}, "HCC1599 [27]": {"system": "HCC1599", "experiment": "normalised response (% of control), CellTiter-Glo; higher = more viable cells (100 = DMSO, 0 = benzethonium chloride kill control)", "summary_of_the_method": "as §1"}, "CAL-148 [28]": {"system": "CAL-148", "experiment": "normalised response (% of control), CellTiter-Glo; higher = more viable cells (100 = DMSO, 0 = benzethonium chloride kill control)", "summary_of_the_method": "as §1"}, "MDA-MB-453 [29]": {"system": "MDA-MB-453", "experiment": "normalised response (% of control), CellTiter-Glo; higher = more viable cells (100 = DMSO, 0 = benzethonium chloride kill control)", "summary_of_the_method": "as §1"}, "CAL-120 [30]": {"system": "CAL-120", "experiment": "normalised response (% of control), CellTiter-Glo; higher = more viable cells (100 = DMSO, 0 = benzethonium chloride kill control)", "summary_of_the_method": "as §1"}, "Hs578T [31]": {"system": "Hs578T", "experiment": "normalised response (% of control), CellTiter-Glo; higher = more viable cells (100 = DMSO, 0 = benzethonium chloride kill control)", "summary_of_the_method": "as §1"}, "CAL-85-1 [32]": {"system": "CAL-85-1", "experiment": "normalised response (% of control), CellTiter-Glo; higher = more viable cells (100 = DMSO, 0 = benzethonium chloride kill control)", "summary_of_the_method": "as §1"}, "SK-BR-3": {"system": "SK-BR-3", "experiment": "normalised response (% of control), CellTiter-Glo; higher = more viable cells (100 = DMSO, 0 = benzethonium chloride kill control)", "summary_of_the_method": "as §1"}, "MDA-MB-231 [33]": {"system": "MDA-MB-231", "experiment": "normalised response (% of control), CellTiter-Glo; higher = more viable cells (100 = DMSO, 0 = benzethonium chloride kill control)", "summary_of_the_method": "as §1"}, "HCC1143 [34]": {"system": "HCC1143", "experiment": "normalised response (% of control), CellTiter-Glo; higher = more viable cells (100 = DMSO, 0 = benzethonium chloride kill control)", "summary_of_the_method": "as §1"}, "BT-549 [35]": {"system": "BT-549", "experiment": "normalised response (% of control), CellTiter-Glo; higher = more viable cells (100 = DMSO, 0 = benzethonium chloride kill control)", "summary_of_the_method": "as §1"}, "MDA-MB-436 [36]": {"system": "MDA-MB-436", "experiment": "normalised response (% of control), CellTiter-Glo; higher = more viable cells (100 = DMSO, 0 = benzethonium chloride kill control)", "summary_of_the_method": "as §1"}},
  "data": [
    {"compound": "Cc1ccc([N+](=O)[O-])cc1S(=O)(=O)N(C)/N=C/c1cnc2ccc(Br)cn12", "note": "[PIK-75] (1000 nM)", "values": [
      {"measurement": "normalised response", "setting": "MCF-10A [1]", "value": -12.4, "unit": "%"},
      {"measurement": "normalised response", "setting": "HCC1937 [2]", "value": 99.3, "unit": "%"},
      {"measurement": "normalised response", "setting": "CAL-51 [3]", "value": 70.6, "unit": "%"},
      {"measurement": "normalised response", "setting": "DU-4475 [4]", "value": 79, "unit": "%"},
      {"measurement": "normalised response", "setting": "MFM-223 [5]", "value": 44.6, "unit": "%"},
      {"measurement": "normalised response", "setting": "MDA-MB-468 [6]", "value": -15.6, "unit": "%"},
      {"measurement": "normalised response", "setting": "BT-474 [7]", "value": 6.93, "unit": "%"},
      {"measurement": "normalised response", "setting": "HDQ-P1 [8]", "value": 38.4, "unit": "%"},
      {"measurement": "normalised response", "setting": "HCC1599 [9]", "value": 62.1, "unit": "%"},
      {"measurement": "normalised response", "setting": "CAL-148 [10]", "value": 86.7, "unit": "%"},
      {"measurement": "normalised response", "setting": "MDA-MB-453 [11]", "value": 61.6, "unit": "%"},
      {"measurement": "normalised response", "setting": "CAL-120 [12]", "value": 86.8, "unit": "%"},
      {"measurement": "normalised response", "setting": "Hs578T [13]", "value": 42.7, "unit": "%"},
      {"measurement": "normalised response", "setting": "CAL-85-1 [14]", "value": -12.6, "unit": "%"},
      {"measurement": "normalised response", "setting": "MDA-MB-231 [15]", "value": -17.8, "unit": "%"},
      {"measurement": "normalised response", "setting": "HCC1143 [16]", "value": 56.9, "unit": "%"},
      {"measurement": "normalised response", "setting": "BT-549 [17]", "value": 35.8, "unit": "%"},
      {"measurement": "normalised response", "setting": "MDA-MB-436 [18]", "value": 102, "unit": "%"},
      {"measurement": "normalised response", "setting": "MCF-10A [19]", "value": 1.81, "unit": "%"},
      {"measurement": "normalised response", "setting": "HCC1937 [20]", "value": 21.6, "unit": "%"},
      {"measurement": "normalised response", "setting": "CAL-51 [21]", "value": 11.5, "unit": "%"},
      {"measurement": "normalised response", "setting": "DU-4475 [22]", "value": 4.76, "unit": "%"},
      {"measurement": "normalised response", "setting": "MFM-223 [23]", "value": 7.31, "unit": "%"},
      {"measurement": "normalised response", "setting": "MDA-MB-468 [24]", "value": 2.19, "unit": "%"},
      {"measurement": "normalised response", "setting": "BT-474 [25]", "value": 9.85, "unit": "%"},
      {"measurement": "normalised response", "setting": "HDQ-P1 [26]", "value": 16.7, "unit": "%"},
      {"measurement": "normalised response", "setting": "HCC1599 [27]", "value": 6.38, "unit": "%"},
      {"measurement": "normalised response", "setting": "CAL-148 [28]", "value": 48.8, "unit": "%"},
      {"measurement": "normalised response", "setting": "MDA-MB-453 [29]", "value": 4.17, "unit": "%"},
      {"measurement": "normalised response", "setting": "CAL-120 [30]", "value": 28.5, "unit": "%"},
      {"measurement": "normalised response", "setting": "Hs578T [31]", "value": 3.83, "unit": "%"},
      {"measurement": "normalised response", "setting": "CAL-85-1 [32]", "value": 1.64, "unit": "%"},
      {"measurement": "normalised response", "setting": "SK-BR-3", "value": 0.25, "unit": "%"},
      {"measurement": "normalised response", "setting": "MDA-MB-231 [33]", "value": 1.8, "unit": "%"},
      {"measurement": "normalised response", "setting": "HCC1143 [34]", "value": 13.3, "unit": "%"},
      {"measurement": "normalised response", "setting": "BT-549 [35]", "value": 2.37, "unit": "%"},
      {"measurement": "normalised response", "setting": "MDA-MB-436 [36]", "value": 15.9, "unit": "%"}
    ]}
  ]
}
